How the values were obtained:
[1] = biological target: full-length hepatitis C NS3 protease with NS4A cofactor (Hepatitis C virus genotype 1a (isolate H77) (HCV), UniProt P27958); experiment: HCV NS3/4A protease inhibition (enzymatic) assay
Description: The aim of this in vitro assay was to measure the inhibition of HCV NS3/4A protease complexes by the compounds of the present invention.
The inhibition of full-length hepatitis C NS3 protease enzyme was measured essentially as described in Poliakov, 2002 Prot Expression & Purification 25 363 371. Briefly, the hydrolysis of a depsipeptide substrate, Ac-DED(Edans)EEAbuψ[COO]ASK(Dabcyl)-NH2 (AnaSpec, San José, USA), was measured spectrofluorometrically in the presence of a peptide cofactor, [sequence] […] The enzyme (1 nM) was incubated in 50 mM HEPES, pH 7.5, 10 mM DTT, 40% glycerol, 0.1% n-octyl-D-glucoside, with 25 μM NS4A cofactor and inhibitor at 30° C. for 10 min, whereupon the reaction was initiated by addition of 0.5 μM substrate. Inhibitors were dissolved in DMSO, sonicated for 30 sec. and vortexed. The solutions were stored at −20° C. between measurements.
The final concentration of DMSO in the assay sample was adjusted to 3.3%. The rate of hydrolysis was corrected for inner filter effects according to published procedures. […] A minimum of two replicates was performed for all measurements.

[2] = test system: HCV type 1b replicon in Huh-7 luc/neo cells; experiment: HCV replicon assay (Huh-Luc cells, luciferase readout); type: cell-based; conditions: Hepatitis C virus, Huh-7, 72 h, three days incubation, luciferase activity
Text: The compounds of formula (I) were examined for activity in the inhibition of HCV RNA replication in a cellular assay. […] The cellular assay was based on a bicistronic expression construct, as described by Lohmann et al. (1999) Science vol. 285 pp. 110-113 with modifications described by Krieger et al. (2001) Journal of Virology 75: 4614-4624, in a multi-target screening strategy. In essence, the method was as follows.
The assay utilized the stably transfected cell line Huh-7 luc/neo (hereafter referred to as Huh-Luc). This cell line harbors an RNA encoding a bicistronic expression construct comprising the wild type NS3-NS5B regions of HCV type 1b translated from an Internal Ribosome Entry Site (IRES) from encephalomyocarditis virus (EMCV), preceded by a reporter portion (FfL-luciferase), and a selectable marker portion (neo^R, neomycine phosphotransferase). The construct is bordered by 5′ and 3′ NTRs (non-translated regions) from HCV type 1b. Continued culture of the replicon cells in the presence of G418 (neo^R) is dependent on the replication of the HCV RNA. The stably transfected replicon cells that express HCV RNA, which replicates autonomously and to high levels, encoding inter alia luciferase, are used for screening the antiviral compounds.
The replicon cells were plated in 384 well plates in the presence of the test and control compounds which were added in various concentrations. Following an incubation of three days, HCV replication was measured by assaying luciferase activity (using standard luciferase assay substrates and reagents and a Perkin Elmer ViewLux™ ultraHTS microplate imager). Replicon cells in the control cultures have high luciferase expression in the absence of any inhibitor. The inhibitory activity of the compound on luciferase activity was monitored on the Huh-Luc cells, enabling a dose-response curve for each test compound.

full-length hepatitis C NS3 protease with NS4A cofactor, sequence (P27958 1027-1657): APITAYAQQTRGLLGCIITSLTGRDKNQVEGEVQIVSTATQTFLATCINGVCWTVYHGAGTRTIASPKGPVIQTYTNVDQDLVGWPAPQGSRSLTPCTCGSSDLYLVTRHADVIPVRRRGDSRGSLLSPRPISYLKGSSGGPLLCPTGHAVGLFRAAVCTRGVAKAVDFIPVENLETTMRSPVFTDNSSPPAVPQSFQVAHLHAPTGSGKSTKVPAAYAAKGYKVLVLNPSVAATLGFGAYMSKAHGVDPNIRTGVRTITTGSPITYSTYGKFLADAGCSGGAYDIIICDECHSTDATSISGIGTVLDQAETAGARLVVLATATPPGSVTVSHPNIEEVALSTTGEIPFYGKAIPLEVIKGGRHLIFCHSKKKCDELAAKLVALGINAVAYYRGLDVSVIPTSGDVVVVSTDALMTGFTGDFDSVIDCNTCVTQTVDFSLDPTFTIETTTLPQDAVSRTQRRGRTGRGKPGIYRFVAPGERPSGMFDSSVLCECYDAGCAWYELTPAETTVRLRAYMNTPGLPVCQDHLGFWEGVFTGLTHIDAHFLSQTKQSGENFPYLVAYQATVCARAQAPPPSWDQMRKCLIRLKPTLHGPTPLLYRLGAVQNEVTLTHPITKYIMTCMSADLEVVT

| Compound | Ki [1] [nM] | EC50 [2] [nM] |
| --- | --- | --- |
| COc1ccc2c(O[C@@H]3C[C@H]4C(=O)N[C@]5(C(=O)O)C[C@H]5/C=C\CCCCCOC(=O)N4C3)cc(-c3ccccc3)nc2c1 [Compound 24, 18-(7-methoxy-2-phenylquinolin-4-yloxy)-2,15-dioxo-3,16-diaza-14-oxatricyclo[14.3.0.0^4,6]nonadec-7-ene-4-carboxylic acid] | 40 | > 10000 |
| COc1ccc2c(O[C@@H]3C[C@H]4C(=O)N[C@]5(C(=O)NS(=O)(=O)C6CC6)C[C@H]5/C=C\CCCCOC(=O)N4C3)cc(-c3ccccc3)nc2c1 [Compound 23, N-[17-(7-methoxy-2-phenylquinolin-4-yloxy)-2,14-dioxo-3,15-diaza-13-oxatricyclo[13.3.0.0^4,6]octadec-7-ene-4-carbonyl](cyclopropyl)-sulfonamide] | 0.2 | 1080 |
| COc1ccc2c(O[C@@H]3C[C@H]4C(=O)N[C@]5(C(=O)O)C[C@H]5/C=C\CCCCOC(=O)N4C3)cc(-c3ccccc3)nc2c1 [Compound 22, 17-(7-methoxy-2-phenylquinolin-4-yloxy)-2,14-dioxo-3,15-diaza-13-oxatricyclo[13.3.0.0^4,6]octadec-7-ene-4-carboxylic acid] | 1070 | > 10000 |
| COc1ccc2c(O[C@@H]3C[C@H]4C(=O)N[C@]5(C(=O)O)C[C@H]5/C=C\CCCCOC(=O)N4C3)nc(Cl)cc2c1 [Compound 16, 17-(3-chloro-6-methoxyisoquinolin-1-yloxy)-2,14-dioxo-3,15-diaza-13-oxatricyclo[13.3.0.0^4,6]octadec-7-ene-4-carboxylic acid] | 1000 | > 10000 |
| COc1ccc2c(O[C@@H]3C[C@H]4C(=O)N[C@]5(C(=O)NS(=O)(=O)C6CC6)C[C@H]5/C=C\CCCCOC(=O)N4C3)nc(Cl)cc2c1 [Compound 17, N-[17-(3-chloro-6-methoxyisoquinolin-1-yloxy)-2,14-dioxo-3,15-diaza-13-oxatricyclo[13.3.0.0^4,6]octadec-7-ene-4-carbonyl](cyclopropyl) sulfonamide] | 43 | > 10000 |
| COc1ccc2c(O[C@@H]3C[C@H]4C(=O)N[C@]5(C(=O)NS(=O)(=O)C6CC6)C[C@H]5/C=C\CCCCCOC(=O)N4C3)cc(-c3ccccc3)nc2c1 [Compound 25, N-[18-(7-methoxy-2-phenylquinolin-4-yloxy)-2,15-dioxo-3,16-diaza-14-oxatricyclo[14.3.0.0^4,6]nonadec-7-ene-4-carbonyl](cyclopropyl)-sulfonamide] | 2.4 | 481 |
